The text below walks through data of DBAASP.

In brackets after ≈: the same amount, converted by molar mass. Several values for one entry are separate records, joined by “and”; a condition that tells them apart may be missing. Identical values can stand only once. A value given as a limit tells only on which side of the number the result lay.

Test in all cases: ≥ marks a high value that may be exact or a test limit, other limits are often not marked, values filed in µg/mL are converted to µM
Test [1] deals with Escherichia coli HP101BA 7601c.
Test [2] has as its system Streptococcus dysgalactiae PTCC 1074.
Test [3] has as its system Streptococcus agalactiae PTCC 1365.
Test [4] relates to Salmonella typhimurium PTCC 1428.
The test system of test [5] is Staphylococcus aureus PTCC 1431.
For test [6], the system named is Klebsiella pneumoniae PTCC 1388.
The subject of test [7] is Enterococcus faecium CGMCC 1.2334.
For test [8], the system named is Bacillus cereus.
Test [9] relates to Escherichia coli AS1.349.
Test [10] concerns Enterococcus faecalis CGMCC 1.595.
The test system of test [11] is Pseudomonas fluorescens.
Test [12] has as its system Pseudomonas aeruginosa CGMCC 1.860.
Test [13] has as its system Staphylococcus epidermidis.
Test [14] concerns Bacillus cereus AS1.126.
Test [15] relates to Escherichia coli.
Test [16] relates to Proteus mirabilis CICC 22931.
Test [17] relates to Klebsiella pneumoniae.
The subject of test [18] is Acinetobacter baumannii CICC 22934.
For test [19], the system named is Lactococcus lactis AS1.1690.
The test system of test [20] is Enterococcus faecium.
In test [21] the test system is Staphylococcus aureus AS1.72.
Test [22] relates to Escherichia coli ATCC 11775.
Test [23] has as its system Lactococcus lactis.
Test [24] concerns Klebsiella aerogenes CGMCC 1.876.
Test [25] relates to Pseudomonas aeruginosa.
Test [26] relates to Staphylococcus epidermidis CICC 23664.
Test [27] has as its system Acinetobacter baumannii.
In test [28] the test system is Enterobacter cloacae.
Test [29] has as its system Klebsiella aerogenes.
Test [30] has as its system Staphylococcus aureus ATCC 12600.
In test [31] the test system is Klebsiella pneumoniae subsp. pneumoniae CGMCC 1.176.
Test [32] deals with Enterobacter cloacae CGMCC 1.58.
The subject of test [33] is Staphylococcus aureus.
Test [34] has as its system Escherichia coli B.
Test [35] has as its system Bacillus subtilis 168.
Test [36] relates to Micrococcus luteus CCM 144.
For test [37], the system named is Candida albicans F7-39/IDE99.
In test [38] the test system is Candida tropicalis IOC 4560.
The subject of test [39] is Candida krusei IOC 4559.
Test [40] deals with Candida albicans MDM8.
Test [41] deals with Candida albicans IOC 4558.
For test [42], the system named is Candida glabrata IOC 4565.
The subject of test [43] is Candida parapsilosis IOC 4564.
The test system of test [44] is Trichosporon sp. IOC 4569.
Test [45] deals with Shigella dysenteriae ATCC 9752.
Test [46] relates to Staphylococcus aureus ATCC 6538P.
The test system of test [47] is Escherichia coli ATCC 25922.
Test [48] concerns Staphylococcus epidermidis ATCC 12228.
Test [49] relates to Pseudomonas aeruginosa ATCC 27853.
Test [50] relates to Bacillus subtilis ATCC 6633.
Test [51] concerns Micrococcus luteus ATCC 10240.
The test system of test [52] is Salmonella enterica subsp. enterica serovar Typhimurium ATCC 14028.
The test system of test [53] is Klebsiella pneumoniae ATCC 10031.

One may read the MIC as the lowest concentration found to suppress growth. A high value points to a less susceptible organism. With `CC(C)C[C@H](NC(=O)[C@@H](NC(=O)CNC(=O)[C@H](C)NC(=O)[C@H](CC(C)C)NC(=O)[C@@H](NC(=O)[C@@H]1CCCN1C(=O)[C@H](CC(C)C)NC(=O)[C@@H](N)Cc1ccccc1)C(C)C)C(C)C)C(=O)N[C@@H](CO)C(=O)N[C@@H](CCCN=C(N)N)C(=O)N[C@@H](C)C(N)=O` [FLPVLAGVLSRA], the MIC in test [1] is 27.8 µM (≈ 34.5 µg/mL); in test [2], 17.5 µM (≈ 21.8 µg/mL); in test [3], 24.5 µM (≈ 30.5 µg/mL); in test [4], 25.6 µM (≈ 31.8 µg/mL); in test [5] it was not below 33.9 µM; in test [6], 28.2 µM (≈ 35.1 µg/mL).
With `CC(C)C[C@H](NC(=O)CNC(=O)[C@H](Cc1ccccc1)NC(=O)[C@H](CCCN=C(N)N)NC(=O)[C@H](CCCN=C(N)N)NC(=O)CNC(=O)[C@H](Cc1cnc[nH]1)NC(=O)[C@H](CCCN=C(N)N)NC(=O)CNC(=O)[C@@H](NC(=O)[C@H](C)NC(=O)[C@@H](N)CO)C(C)C)C(=O)N[C@@H](CCCN=C(N)N)C(=O)N[C@@H](CCCCN)C(=O)N[C@@H](Cc1cnc[nH]1)C(=O)N[C@@H](CCCN=C(N)N)C(=O)N[C@@H](CCCCN)C(=O)N[C@@H](Cc1cnc[nH]1)C(=O)O` [SAVGRHGRRFGLRKHRKH], the MIC in test [7] is not below 42.4 µM; in [8] it was 11.6 µM (≈ 25 µg/mL); in test [9] it was not below 500 µM; in [10], not below 33.3 µM; in test [11], not below 50 µM; in test [12], not below 380 µM. Moreover, the minimal inhibitory concentration (MIC) is not below 50 µM in [13]; 11.6 µM (≈ 25 µg/mL) in [14]; > 100 µM and 50 µM in test [15]; not below 100 µM in [16]; more than 50 µM in test [17]; not below 100 µM in [18]. Further, the minimal inhibitory concentration (MIC) in test [19] is 15.6 µM (≈ 33.6 µg/mL); in test [20], not below 50 µM; in test [21] it was not below 58 µM; in [22], 3 µM (≈ 6.47 µg/mL); in [23], 11.6 µM (≈ 25 µg/mL); in test [24], not below 500 µM. In addition, the minimal inhibitory concentration (MIC) was more than 50 µM in test [25]; 7.2 µM (≈ 15.5 µg/mL) in test [26]; not below 50 µM in test [27]; not below 50 µM in test [28]; not below 50 µM in test [29]; 6 µM (≈ 12.9 µg/mL) in test [30]. In addition, the minimal inhibitory concentration (MIC) in [31] is not below 500 µM; in test [32], not below 500 µM; in test [33], 58 µM and 50 µM.
In the case of `CC[C@H](C)[C@@H]1NC(=O)[C@H](CCCCN)NC(=O)[C@H](CCCCN)NC(=O)[C@@H]2CSSC[C@H](NC(=O)[C@H](C)NC(=O)[C@H](C(C)C)NC(=O)[C@@H](NC(=O)[C@@H](NC(=O)[C@@H](NC(=O)[C@H](CCCCN)NC(=O)[C@H](CCCCN)NC(=O)[C@@H](NC(=O)[C@H](CC(=O)O)NC(=O)[C@@H](N)CC(C)C)C(C)C)[C@@H](C)CC)[C@@H](C)CC)CSSC[C@@H](C(=O)N3CCC[C@H]3C(=O)N[C@@H](CCCCN)C(=O)O)NC1=O)C(=O)N[C@@H](CCCCN)C(=O)N[C@@H]([C@@H](C)CC)C(=O)N[C@@H](CCCCN)C(=O)N1CCC[C@H]1C(=O)N[C@@H](CC(N)=O)C(=O)N1CCC[C@H]1C(=O)N[C@@H](C)C(=O)N2` [LDVKKIICVACKIKPNPACKKICPK], the MIC in test [34] was not below 63.3 µM; in [35] it was 3.3 µM (≈ 9.08 µg/mL); in test [36], 1.6 µM (≈ 4.4 µg/mL); in test [25], more than 100 µM; in test [37] it was 24.2 µM (≈ 66.6 µg/mL); in test [33], more than 100 µM.
Take `CC[C@H](C)[C@H](N)C(=O)N[C@H](C(=O)N[C@H](C(=O)N[C@@H](CCC(N)=O)C(=O)N[C@@H](Cc1ccc(O)cc1)C(=O)N[C@@H](CCC(=O)O)C(=O)NCC(=O)N[C@@H](Cc1cnc[nH]1)C(=O)N[C@@H](CCCCN)C(=O)N[C@@H](Cc1cnc[nH]1)C(=O)O)[C@@H](C)CC)[C@@H](C)CC` [IIIQYEGHKH]: the MIC in [38] is 16.5 µM (≈ 20.4 µg/mL); in test [39], not below 33.5 µM; in test [40] it was not below 33.5 µM; in test [41] it was 16.5 µM (≈ 20.4 µg/mL); in test [42] it was 16.5 µM (≈ 20.4 µg/mL); in [43], not below 33.5 µM. In [44], this molecule had an MIC of 2.1 µM (≈ 2.6 µg/mL).
`CC(C)C[C@H](NC(=O)[C@H](CCCCN)NC(=O)[C@H](CC(C)C)NC(=O)[C@H](CC(C)C)NC(=O)[C@H](Cc1c[nH]c2ccccc12)NC(=O)[C@H](CCCCN)NC(=O)[C@H](CC(C)C)NC(=O)[C@H](CC(C)C)NC(=O)[C@@H](N)CCCCN)C(N)=O` [KLLKWLLKL]: the minimum inhibitory concentration (MIC) in test [45] was determined as 10.8 µM (≈ 12.5 µg/mL); in [46] it was 2.69 µM (≈ 3.1 µg/mL); in test [47], 10.8 µM (≈ 12.5 µg/mL); in [48] it was 10.8 µM (≈ 12.5 µg/mL); in [49], 43.3 µM (≈ 50 µg/mL); in [50], 10.8 µM (≈ 12.5 µg/mL). For the same molecule, the MIC in test [51] stood at 21.7 µM (≈ 25 µg/mL); in test [52] it was 21.7 µM (≈ 25 µg/mL); in [53] it was 5.46 µM (≈ 6.29 µg/mL).
